Consider 4 compounds from patent publication US10208074B2, “Pyrazole compounds and method for making and using the compounds” (Rigel Pharmaceuticals, Inc., priority 2015, dated 2019).

In one assay the test system is IL-23p19. In words: LPS induced IL23p19 in THP-1 cells (with IFNγ primed) assay. Format: cell-based, Human. Particulars: Homo sapiens, THP-1, 18 h, THP-1 cells, IFNγ primed, LPS 1 ug/mL, 18 hours, 10 pt; read-out: IL23-p19 ELISA, THP1-IFNy, LPS, 10 pt EC50. The procedure, abridged:
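Readout is secreted IL-23p19, quantified by chemiluminescent sandwich ELISA after 18 h LPS (1 ug/mL) stimulation of THP-1 cells that had been IFNγ-primed (50 ng/mL, ~18 h) and given compound 1 h beforehand at 37 °C. EC50 derived by curve fit; cytotoxicity tracked with Cell Titer Glo.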
(In general: In an ELISA, binding on a coated surface is turned into a signal by an enzyme label.)

The next assay deals with IL-23 (p19/p40). In words: IL23-p19 ELISA, Dendritic, LPS (compound screening using DC cells). Format: cell-based, Human. As to conditions: Homo sapiens, 18 h, PBMC-derived DC cells, IFNγ primed, LPS 1 μg/ml, 18 hours, 10 pt; read-out: IL23-p19 ELISA, Dendritic, LPS, 10 pt, EC50. The method in brief:
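IL-23 in supernatants quantified by sandwich ELISA (anti-p19 capture, biotinylated anti-p40 detection, chemiluminescent readout) after 18 h LPS (1 μg/ml) stimulation. Cells were monocyte-derived DCs (GM-CSF/IL-4, 7 d), IFNγ-primed 24 h and given compound 1 h before LPS; viability by CellTiter Glo.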

For orientation: EC50 means the concentration needed to bring the measured effect to its halfway point. `O=C(Nc1cn(C2CCC2)nc1-c1ccccn1)c1coc(-c2cn[nH]c2)n1` [III-5, N-(1-cyclobutyl-3-(pyridin-2-yl)-1H-pyrazol-4-yl)-2-(1H-pyrazol-4-yl)oxazole-4-carboxamide]: the concentration giving a half-maximal response (EC50) was determined as 0.27 µM in the assay with IL-23p19 and 0.071 µM in the assay on IL-23 (p19/p40).

Regarding `COCCOCCn1cc(NC(=O)c2coc(-c3cc[nH]n3)n2)c(-c2ccccn2)n1` [III-6, N-(1-(2-(2-methoxyethoxy)ethyl)-3-(pyridin-2-yl)-1H-pyrazol-4-yl)-2-(1H-pyrazol-3-yl)oxazole-4-carboxamide], the half-maximal effective concentration (EC50) with IL-23p19 came out at 0.238 µM; in the assay with IL-23 (p19/p40), 0.217 µM.

On to `O=C(Nc1cn(CCOCC(F)(F)F)nc1-c1ccccn1)c1coc(-c2cc[nH]n2)n1` [III-7, 2-(1H-pyrazol-3-yl)-N-(3-(pyridin-2-yl)-1-(2-(2,2,2-trifluoroethoxy)ethyl)-1H-pyrazol-4-yl)oxazole-4-carboxamide], for which the half-maximal effective concentration (EC50) in the assay with IL-23p19 amounted to 0.0853 µM; in the assay on IL-23 (p19/p40) it was 0.451 µM.

As to `O=C(Nc1cn(CCOCC(F)F)nc1-c1ccccn1)c1coc(-c2cn[nH]c2)n1` [III-8, N-(1-(2-(2,2-difluoroethoxy)ethyl)-3-(pyridin-2-yl)-1H-pyrazol-4-yl)-2-(1H-pyrazol-4-yl)oxazole-4-carboxamide], the EC50 with IL-23p19 stood at 0.4 µM; in the assay with IL-23 (p19/p40) it was 0.161 µM.
